According to US5861410A, “Tetrahydro-beta-carbolines” (Eli Lilly and Company, priority 1997, dated 1999):
Counter-ions that a name gives are not always drawn.

Key:
5HT2A = biological target: T1, 5HT2A (Homo sapiens, UniProt P28223); assay: Cell assay using human cells, 5HT2A; format: binding; settings: Table I
T1 construct: expressed in transfected cells
Description: (§1) The Kd and Bmax values from the saturation assays were determined for best fit to a one-site or a two-site binding model using a partial F-test. De Lean, A., A. A. Hancock, and R. J. Lefkowitz, Mol. Pharmacol. 21:5-16 (1981). The following equation was used for a one-site binding model, [formula] where Bound=amount of [^3 H]5-HT specifically bound, Bmax =maximum number of binding sites, Kd =equilibrium dissociation constant and [L]=free concentration of [^3 H]5-HT, or a two-site binding model, [formula] where Bound=amount of [^3 H]5-HT specifically bound, Bmax1 =maximum number of high affinity binding sites, Bmax2 =maximum number of low affinity binding sites, Kd1 =equilibrium dissociation constant for the high affinity site, Kd2 =equilibrium dissociation constant for the low affinity site and [L]=free concentration of [^3 H]5-HT. The IC50 values from the competition assays, the binding parameters for the IP3 standard curve and the EC50 and Emax values from the IP3 assays were determined by nonlinear regression analysis of four parameter logistic equations (Systat, Systat Inc, Evanston, Ill.). De Lean, A., A. A. Hancock, and R. J. Lefkowitz, Mol. Pharmacol., 21:5-16 (1981). The IC50 values were converted to Ki values using the Cheng-Prusoff equation. Cheng, Y., and W. H. Prusoff, Biochem. Pharmacol., 22:3099-3108 (1973).
(§2) The following Cell assays use Human Cells

5HT2C = biological target: T2, 5HT2C (Homo sapiens, UniProt P28335); assay: Cell assay using human cells, 5HT2C; format: binding; settings: Table I
T2 construct: expressed in transfected cells
T2 sequence (P28335 33-458): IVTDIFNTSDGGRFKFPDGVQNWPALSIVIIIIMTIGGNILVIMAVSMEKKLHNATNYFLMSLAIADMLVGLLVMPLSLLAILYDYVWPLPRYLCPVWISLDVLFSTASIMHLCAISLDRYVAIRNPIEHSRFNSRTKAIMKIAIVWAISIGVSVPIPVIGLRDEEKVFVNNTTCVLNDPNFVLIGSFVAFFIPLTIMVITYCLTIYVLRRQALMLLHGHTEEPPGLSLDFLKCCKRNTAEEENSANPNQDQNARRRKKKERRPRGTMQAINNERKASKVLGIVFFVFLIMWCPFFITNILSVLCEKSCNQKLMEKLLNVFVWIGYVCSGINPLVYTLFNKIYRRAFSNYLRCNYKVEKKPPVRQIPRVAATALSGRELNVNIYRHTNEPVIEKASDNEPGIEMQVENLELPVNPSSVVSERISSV
Description: as §1, §2

5HT2B = biological target: T3, 5HT2B (Homo sapiens, UniProt P41595); assay: Cell assay using human cells, 5HT2B (radioligand binding); settings: Table I
T3 construct: expressed in transfected cells

5-HT1c receptor = biological target: T4, 5-HT1c receptor (Bos taurus, UniProt A0AAA9SBU1); assay: Assay for 5-HT1c affinity, radioligand binding (selectivity against 5-HT2 receptor assay); design: species or system beef; settings: low IC50 in the 5-HT1c receptor assay and a higher IC50 in the 5-HT2 receptor assay
T4 sequence (A0AAA9SBU1 33-457): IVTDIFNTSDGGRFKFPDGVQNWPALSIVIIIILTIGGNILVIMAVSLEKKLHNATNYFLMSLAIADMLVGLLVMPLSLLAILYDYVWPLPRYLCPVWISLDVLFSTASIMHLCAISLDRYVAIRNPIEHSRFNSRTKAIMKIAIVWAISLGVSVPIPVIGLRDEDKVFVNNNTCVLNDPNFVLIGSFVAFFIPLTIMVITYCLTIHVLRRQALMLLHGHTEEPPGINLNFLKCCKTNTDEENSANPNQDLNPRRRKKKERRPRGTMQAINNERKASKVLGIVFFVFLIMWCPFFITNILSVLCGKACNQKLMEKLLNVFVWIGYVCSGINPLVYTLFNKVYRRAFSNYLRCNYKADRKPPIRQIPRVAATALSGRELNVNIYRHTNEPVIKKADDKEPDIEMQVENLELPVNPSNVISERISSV
Description: Beef brain was removed immediately after slaughter, and choroid plexus were dissected over ice. […] The brain of each was immediately removed and the cerebral cortex was dissected over ice. Tissues were homogenized in 9 volumes of 0.32 mol/L sucrose and centrifuged at 1,000×g for 10 minutes. The supernatant was centrifuged at 17,000 x g for 20 minutes. The pellet was suspended in 100 volumes of 50 mM Tris-HCl (pH7.4), incubated at 37° C. for 10 minutes and centrifuged at 50,000×g for 10 minutes, and the process was repeated three times. The final pellets were frozen at -70° C. and used within 2 weeks. Pellets were rehydrated with physiological buffer prior to use.
For 5-HT1c receptor assays increasing concentrations of experimental compound, 50 mM Tris HCl buffer pH 7.4 , and tritiated mesulergine (2.0 nM) (^3 H ligand) were combined in polystyrene tubes at room temperature. The reaction was initiated by the addition of the resuspended choroid plexus tissue which had been preincubated at 37° C. for 20 minutes. The reaction mixture was incubated in a 37° C. water bath for 15 minutes.
The reactions were terminated by rapid filtration, (Brandel Cell Harvestor), through Whatman GF/B glass filters that had been presoaked in Tris buffer pH 7.4. The filters were then washed 2 times with 5 ml of ice cold Tris buffer pH 7.4. Washed filters were placed in scintillation vials and 10 ml RedySolv, (Brandel), was added and samples were counted in a Searle D-300 beta counter. Means and standard error statistics were calculated for triplicate experimental determinations in certain cases. Mean values were obtained from three or more separate determinations. The incubation time for the reaction mixture was 15 minutes at 37° C.

T1 sequence (P28223 whole entry): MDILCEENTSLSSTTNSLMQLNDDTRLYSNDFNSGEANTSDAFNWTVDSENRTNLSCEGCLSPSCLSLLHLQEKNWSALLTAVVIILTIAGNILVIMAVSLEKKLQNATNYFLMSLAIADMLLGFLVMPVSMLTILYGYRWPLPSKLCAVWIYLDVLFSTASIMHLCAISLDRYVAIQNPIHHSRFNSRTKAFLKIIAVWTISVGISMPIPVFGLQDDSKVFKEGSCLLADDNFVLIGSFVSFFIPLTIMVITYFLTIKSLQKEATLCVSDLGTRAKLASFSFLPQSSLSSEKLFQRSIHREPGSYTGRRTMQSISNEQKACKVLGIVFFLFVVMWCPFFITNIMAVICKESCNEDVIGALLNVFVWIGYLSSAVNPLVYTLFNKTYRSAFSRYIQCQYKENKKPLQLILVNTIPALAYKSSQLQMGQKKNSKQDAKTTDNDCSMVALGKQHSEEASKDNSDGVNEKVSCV
T3 sequence (P41595 whole entry): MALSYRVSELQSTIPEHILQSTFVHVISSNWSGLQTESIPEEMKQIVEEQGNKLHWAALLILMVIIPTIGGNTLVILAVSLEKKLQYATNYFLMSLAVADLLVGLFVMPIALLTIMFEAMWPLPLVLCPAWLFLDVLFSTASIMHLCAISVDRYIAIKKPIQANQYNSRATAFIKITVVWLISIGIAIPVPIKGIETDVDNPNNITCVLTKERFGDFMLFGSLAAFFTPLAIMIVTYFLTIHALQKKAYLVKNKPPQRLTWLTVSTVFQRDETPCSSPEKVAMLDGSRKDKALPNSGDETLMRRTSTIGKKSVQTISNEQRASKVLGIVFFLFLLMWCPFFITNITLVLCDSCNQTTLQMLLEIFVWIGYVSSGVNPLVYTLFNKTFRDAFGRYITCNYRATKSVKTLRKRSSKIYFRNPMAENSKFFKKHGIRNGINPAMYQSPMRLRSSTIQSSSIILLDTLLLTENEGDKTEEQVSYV

| Structure (SMILES) | Ki (5HT2A) | Ki (5HT2C) | Ki (5HT2B) | 5-HT1c selective (5-HT1c receptor) | Ki (5HT2A; hydrochloride) | Ki (5HT2C; hydrochloride) | Ki (5HT2B; hydrochloride) |
| --- | --- | --- | --- | --- | --- | --- | --- |
| COc1ccc(CC2N[C@@H]3CCCC[C@H]3c3c2[nH]c2c(Cl)cccc32)cc1OC (relative stereo) [Example 12, Trans-8-chloro-6-(3,4-dimethoxybenzyl)-2,3,4,4a,5,6,7,11c-octahydro-1H-indolo[2,3-c]quinoline, hydrochloride] | 172 nM | 783 nM | 121 nM | – | – | – | – |
| COc1ccc(CC2N[C@@H]3CCC[C@H]3c3c2[nH]c2c(Cl)cccc32)cc1OC (relative stereo) [Example 9, Trans-7-chloro-5-(3,4-dimethoxybenzyl)-1,2,3,4,4a,5,6,10c-octahydrocyclopenta[a]pyrido [3,4-b]indole, hydrochloride] | 53.6 nM | 203 nM | 52.5 nM | – | – | – | – |
| Cl.N[C@@H]1CCCC[C@H]1c1c[nH]c2c(Cl)cccc12 (relative stereo) [Example 4, Trans-3-(2-amino-cyclohexyl)-7-chloroindole, hydrochloride] | – | – | – | particularly 5-HT1c selective | – | – | – |
| COc1ccc(CC2N[C@@H]3CCC[C@H]3c3c2[nH]c2ccc(C)cc32)cc1OC (relative stereo) [Example 8, Trans-5-(3,4-dimethoxybenzyl)-9-methyl-1,2,3,4,4a,5,6,10c-octahydrocyclopenta[a]pyrido [3,4-b]indole, hydrochloride] | 124 nM | 221 nM | 9.56 nM | – | – | – | – |
| Cc1ccc2[nH]cc([C@@H]3CCCC[C@H]3N)c2c1.Cl (relative stereo) [Example 3, Trans-3-(2-amino-cyclohexyl)-5-methylindole, hydrochloride] | – | – | – | particularly 5-HT1c selective | – | – | – |
| Cc1ccc2[nH]c3c(c2c1)[C@@H]1CCCC[C@H]1NC3 (relative stereo) [Example 6, Trans-10-methyl-2,3,4,4a,5,6,7,11c-octahydro-1H-indolo[2,3-c] quinoline, hydrochloride] | – | – | – | particularly 5-HT1c selective | – | – | – |
| Cc1cc(C)c2[nH]c3c(c2c1)[C@@H]1CCCC[C@H]1NC3Cc1cccc2ccccc12 (relative stereo) [Example 17, Trans-8,10-dimethyl-6-(1-naphthylmethyl)-2,3,4,4a,5,6,7,11c-octahydro-1H-indolo[2,3-c]quinoline, hydrochloride] | 264 nM | 1110 nM | 367 nM | – | – | – | – |
| COc1cc2c(cc1OC)CC1(CC2)N[C@H]2CCCC[C@@H]2c2c1[nH]c1ccc(C)cc21 (single isomer, unassigned; isomer 18) [Isomer 18(1), Trans-spiro-6,6-[2-(3,4-dimethoxy)-1,2,3,4-tetrahydronaphthyl]-10-methyl-2,3,4,4a,5,6,7,11a-octahydro-1 H-indolo[2,3-c]quinidine, hydrochloride] | – | – | – | – | 153 nM | 138 nM | 143 nM |
| COc1ccc(CC2N[C@@H]3CCCCC[C@H]3c3c2[nH]c2ccc(C)cc32)cc1OC (relative stereo) [Example 14, Trans-7-(3,4-dimethoxybenzyl)-11-methyl-1,2,3,4,5,5a,6,7,8,12a-decahydrocyclohepta[a]pyrido[3,4-b]indole, hydrochloride] | 1450 nM | 9250 nM | 3520 nM | – | – | – | – |
| COc1ccc(CC2N[C@@H]3CCCC[C@H]3c3c2[nH]c2c(C)cc(C)cc32)cc1OC (relative stereo) [Example 13, Trans-6-(3,4-dimethoxybenzyl)-8,10-dimethyl-2,3,4,4a,5,6,7,11c-octahydro-1H-indolo[2,3-c]quinoline, hydrochloride] | 917 nM | 2170 nM | 168 nM | particularly 5-HT1c selective | – | – | – |
| COc1cc2c(cc1OC)CC1(CC2)N[C@H]2CCCC[C@@H]2c2c1[nH]c1ccc(C)cc21 (single isomer, unassigned; isomer 18) [Isomer 18(2), Trans-spiro-6,6-[2-(3,4-dimethoxy)-1,2,3,4-tetrahydronaphthyl]-10-methyl-2,3,4,4a,5,6,7,11a-octahydro-1 H-indolo[2,3-c]quinidine, hydrochloride] | – | – | – | – | 1970 nM | 6210 nM | 2890 nM |
| Clc1cccc2c3c([nH]c12)CN[C@@H]1CCCC[C@@H]31 (relative stereo) [Example 7, Trans-8-chloro-2,3,4,4a,5,6,7,11c-octahydro-1 H-indolo[2,3-c]quinoline, hydrochloride] | 278 nM | 977 nM | 668 nM | particularly 5-HT1c selective | – | – | – |
| Cc1ccc2[nH]c3c(c2c1)[C@@H]1CCC[C@H]1NC3Cc1cccc2ccccc12 (relative stereo) [Example 15, Trans-9-methyl-5-(1-naphthylmethyl)-1,2,3,4,4a,5,6,10c-octahydrocyclopenta[a]pyrido [3,4]-blindole, hydrochloride] | 33 nM | 52.1 nM | – | – | – | – | – |
| Cc1ccc2[nH]c3c(c2c1)[C@@H]1CCCC[C@H]1NC3Cc1cccc2ccccc12 (relative stereo) [Example 16, Trans-10-methyl-6-(1-naphthylmethyl)-2,3,4,4a,5,6,7,11c-octahydro-1H-indolo[2,3-c]quinoline, hydrochloride] | – | – | – | particularly 5-HT1c selective | – | – | – |
| COc1ccc(CC2N[C@@H]3CCCC[C@H]3c3c2[nH]c2ccc(C)cc32)cc1OC (relative stereo) [Example 11, Trans-6-(3,4-dimethoxybenzyl)-10-methyl-2,3,4,4a,5,6,7,11c-octahydro-1H-indolo[2,3-c]quinoline, hydrochloride] | 293 nM | 352 nM | 16.4 nM | – | – | – | – |
| COc1cc2c(cc1OC)CC1(CC2)N[C@H]2CCCC[C@@H]2c2c1[nH]c1ccc(C)cc21 (relative stereo) [Example 18, Trans-spiro-6,6-[2-(3,4-dimethoxy)-1,2,3,4-tetrahydronaphthyl]-10-methyl-2,3,4,4a,5,6,7,11a-octahydro-1 H-indolo[2,3-c]quinidine, hydrochloride] | – | – | – | – | 363 nM | 325 nM | 178 nM |
| COc1ccc(CC2N[C@@H]3CCC[C@H]3c3c2[nH]c2c(C)cc(C)cc32)cc1OC (relative stereo) [Example 10, Trans-5-(3,4-dimethoxybenzyl)-7,9-dimethyl-1,2,3,4,4a,5,6,10c-octahydrocyclopenta[a]pyrido [3,4-b]indole, hydrochloride] | 556 nM | 1120 nM | 106 nM | particularly 5-HT1c selective | – | – | – |
